Results taken from US20120058989A1, “ANTIBACTERIAL FLUOROQUINOLONE ANALOGS” (Achaogen, Inc., priority 2008, published 2012).

What was measured:
Assay in all cases: MIC, CLSI broth microdilution
Type in all cases: cell-based
[1] = system: A. baumannii AABA1009 (Fluoroquinolone-resistant); settings: Table 2
Procedure, shortened: (§1)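 CLSI M7-A7 broth microdilution in Mueller Hinton Broth using two-fold compound serial dilutions. Inoculum was prepared from the previous day's agar colonies at a final 5×10^5 CFU/mL. Plates were incubated at 35° C for 20 hours in ambient air.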

[2] = system: A. baumannii AABA1020 (Fluoroquinolone-resistant); settings: Table 3
Procedure, shortened: as §1

[3] = system: A. baumannii AABA1065 (Fluoroquinolone-susceptible)
Procedure, shortened: as §1

[4] = system: E. coli AECO001 (Fluoroquinolone susceptible, ATCC25922)
Procedure, shortened: as §1

[5] = system: E. coli AECO002 (Fluoroquinolone susceptible); settings: Table 3
Procedure, shortened: as §1

[6] = system: E. coli AECO066 (Fluoroquinolone-resistant)
Procedure, shortened: as §1

[7] = system: E. coli AECO086 (Fluoroquinolone-resistant); settings: Table 3
Procedure, shortened: as §1

[8] = system: P. aeruginosa APAE001 (Fluoroquinolone-susceptible, ATCC27853)
Procedure, shortened: as §1

[9] = system: P. aeruginosa APAE002 (Fluoroquinolone susceptible); settings: Table 3
Procedure, shortened: as §1

[10] = system: P. aeruginosa APAE054 (Fluoroquinolone-resistant)
Procedure, shortened: as §1

[11] = system: S. aureus ASAU001 (Fluoroquinolone-susceptible, ATCC29213)
Procedure, shortened: as §1

[12] = system: S. aureus ASAU002 (Fluoroquinolone-susceptible, ATCC33591 (MRSA)); settings: Table 3
Procedure, shortened: as §1

[13] = system: S. aureus ASAU1031 (Fluoroquinolone-resistant)
Procedure, shortened: as §1

[14] = system: S. aureus ASAU1033 (Fluoroquinolone-resistant); settings: Table 3
Procedure, shortened: as §1

[15] = system: S. pneumoniae ASPN001 (Fluoroquinolone-susceptible, ATCC49619)
Procedure, shortened: as §1

[16] = system: S. pneumoniae ASPN002 (Fluoroquinolone-susceptible, ATCC10813); settings: Table 3
Procedure, shortened: as §1

[17] = system: S. pneumoniae ASPN1018 (Fluoroquinolone-resistant); settings: Table 3
Procedure, shortened: as §1

[18] = system: S. pneumoniae ASPN1027 (Fluoroquinolone-resistant)
Procedure, shortened: as §1

Structure (SMILES) | MIC AABA 1009 [1] | MIC AABA1020 [2] | MIC AABA 1065 ([3]; Table 2) | MIC AABA 1065 ([3]; Table 3) | MIC AECO 001 ([4]; Table 2, 35° C., 20 hours) | MIC AECO 001 ([4]; Table 3) | MIC AECO002 [5] | MIC AECO 066 ([6]; Table 2) | MIC AECO 066 ([6]; Table 3) | MIC AECO086 [7] | MIC APAE 001 ([8]; Table 2) | MIC APAE 001 ([8]; Table 3) | MIC APAE002 [9] | MIC APAE 054 ([10]; Table 2) | MIC APAE 054 ([10]; Table 3) | MIC ASAU 001 ([11]; Table 2) | MIC ASAU 001 ([11]; Table 3) | MIC ASAU 1031 ([13]; Table 2) | MIC ASPN 001 ([15]; Table 2) | MIC ASPN 1027 ([18]; Table 2) | further results
N[C@H]1CCN2c3c(F)cc4c(=O)c(C(=O)O)cn(C5CC5)c4c3C=CC[C@H]12.O=C(O)C(F)(F)F [17/8, (7aR,8S)-8-Amino-4-cyclopropyl-12-fluoro-1-oxo-4,7,7a,8,9,10-hexahydro-1H-pyrrolo[1′,2′:1,7]azepino[2,3-h]quinoline-2-carboxylic acid trifluoroacetate] | C (MIC's of greater than 8.0 μg/mL = C) | D (MIC's of greater than 8.0 μg/mL = D) | A (MIC's of 1.0 μg/mL or less = A) | A (MIC's of less than 1.0 = A) | A (MIC's of 1.0 μg/mL or less = A) | A (MIC's of less than 1.0 = A) | A (MIC's of less than 1.0 = A) | B (MIC's of greater than 1.0 μg/mL to 8.0 μg/mL = B) | C (MIC's of 2.0 μg/mL to 8.0 μg/mL = C) | B (MIC's of 1.0 μg/mL to 2.0 μg/mL = B) | A (MIC's of 1.0 μg/mL or less = A) | A (MIC's of less than 1.0 = A) | A (MIC's of less than 1.0 = A) | C (MIC's of greater than 8.0 μg/mL = C) | D (MIC's of greater than 8.0 μg/mL = D) | A (MIC's of 1.0 μg/mL or less = A) | A (MIC's of less than 1.0 = A) | B (MIC's of greater than 1.0 μg/mL to 8.0 μg/mL = B) | A (MIC's of 1.0 μg/mL or less = A) | B (MIC's of greater than 1.0 μg/mL to 8.0 μg/mL = B) | MIC ASAU002 [12]: A (MIC's of less than 1.0 = A); MIC ASAU 1031 ([13]; Table 3): A (MIC's of less than 1.0 = A); MIC ASAU1033 [14]: C (MIC's of 2.0 μg/mL to 8.0 μg/mL = C); MIC ASPN 001 ([15]; Table 3): A (MIC's of less than 1.0 = A); MIC ASPN002 [16]: A (MIC's of less than 1.0 = A); MIC ASPN1018 [17]: B (MIC's of 1.0 μg/mL to 2.0 μg/mL = B); MIC ASPN 1027 ([18]; Table 3): A (MIC's of less than 1.0 = A)
N[C@H]1CCN2c3c(F)cc4c(=O)c(C(=O)O)cn(C5CC5)c4c3CCC[C@H]12.O=C(O)C(F)(F)F [17/10, (7aR,8S)-8-Amino-4-cyclopropyl-12-fluoro-1-oxo-4,5,6,7,7a,8,9,10-octahydro-1H-pyrrolo[1′,2′:1,7]azepino-[2,3-h]quinoline-2-carboxylic acid trifluoroacetate] | C (MIC's of greater than 8.0 μg/mL = C) | D (MIC's of greater than 8.0 μg/mL = D) | A (MIC's of 1.0 μg/mL or less = A) | A (MIC's of less than 1.0 = A) | A (MIC's of 1.0 μg/mL or less = A) | A (MIC's of less than 1.0 = A) | A (MIC's of less than 1.0 = A) | C (MIC's of greater than 8.0 μg/mL = C) | D (MIC's of greater than 8.0 μg/mL = D) | D (MIC's of greater than 8.0 μg/mL = D) | B (MIC's of greater than 1.0 μg/mL to 8.0 μg/mL = B) | B (MIC's of 1.0 μg/mL to 2.0 μg/mL = B) | A (MIC's of less than 1.0 = A) | C (MIC's of greater than 8.0 μg/mL = C) | D (MIC's of greater than 8.0 μg/mL = D) | A (MIC's of 1.0 μg/mL or less = A) | A (MIC's of less than 1.0 = A) | B (MIC's of greater than 1.0 μg/mL to 8.0 μg/mL = B) | A (MIC's of 1.0 μg/mL or less = A) | B (MIC's of greater than 1.0 μg/mL to 8.0 μg/mL = B) | MIC ASAU002 [12]: A (MIC's of less than 1.0 = A); MIC ASAU 1031 ([13]; Table 3): B (MIC's of 1.0 μg/mL to 2.0 μg/mL = B); MIC ASAU1033 [14]: D (MIC's of greater than 8.0 μg/mL = D); MIC ASPN 001 ([15]; Table 3): A (MIC's of less than 1.0 = A); MIC ASPN002 [16]: A (MIC's of less than 1.0 = A); MIC ASPN1018 [17]: C (MIC's of 2.0 μg/mL to 8.0 μg/mL = C); MIC ASPN 1027 ([18]; Table 3): B (MIC's of 1.0 μg/mL to 2.0 μg/mL = B)
NC[C@H]1C[C@@H]2CCCc3c(c(F)cc4c(=O)c(C(=O)O)cn(C5CC5)c34)N2C1.O=C(O)C(F)(F)F [20/16, (7aS,9R)-9-(Aminomethyl)-4-cyclopropyl-12-fluoro-1-oxo-4,5,6,7,7a,8,9,10-octahydro-1H-pyrrolo[1′,2′:1,7]-azepino[2,3-h]quinoline-2-carboxylic acid trifluoroacetate] | C (MIC's of greater than 8.0 μg/mL = C) | – | A (MIC's of 1.0 μg/mL or less = A) | – | A (MIC's of 1.0 μg/mL or less = A) | – | – | C (MIC's of greater than 8.0 μg/mL = C) | – | – | B (MIC's of greater than 1.0 μg/mL to 8.0 μg/mL = B) | – | – | C (MIC's of greater than 8.0 μg/mL = C) | – | A (MIC's of 1.0 μg/mL or less = A) | – | C (MIC's of greater than 8.0 μg/mL = C) | A (MIC's of 1.0 μg/mL or less = A) | C (MIC's of greater than 8.0 μg/mL = C) | –
O=C1C[C@H]2CC=Cc3c(c(F)cc4c(=O)c(C(=O)O)cn(C5CC5)c34)N2C1 [18/10, (7aR)-4-Cyclopropyl-12-fluoro-1,9-dioxo-4,7,7a,8,9,10-hexahydro-1H-pyrrolo[1′,2′:1,7]azepino[2,3-h]quino-line-2-carboxylic acid] | C (MIC's of greater than 8.0 μg/mL = C) | – | C (MIC's of greater than 8.0 μg/mL = C) | – | B (MIC's of greater than 1.0 μg/mL to 8.0 μg/mL = B) | – | – | C (MIC's of greater than 8.0 μg/mL = C) | – | – | C (MIC's of greater than 8.0 μg/mL = C) | – | – | C (MIC's of greater than 8.0 μg/mL = C) | – | A (MIC's of 1.0 μg/mL or less = A) | – | C (MIC's of greater than 8.0 μg/mL = C) | B (MIC's of greater than 1.0 μg/mL to 8.0 μg/mL = B) | C (MIC's of greater than 8.0 μg/mL = C) | –
